Patent US11981729B2, “Method” (Agency for Science, Technology and Research, priority 2020, dated 2024)

Assays:
NIH3T3vSrc cells [1] = test: ECM degradation assay, NIH3T3vSrc on rat tail ECM; format: cell-based, mouse; conditions: for ECM degradation: 1 mM GSH supplemented, or GPx and H2O2, vs untreated cells
Protocol: (§1) Gelatin (#G1393, Sigma) was first coupled to 5-carboxy-X-rhodamine succinimidyl ester (#C-6125, ThermoFisher Scientific). Sterile coverslips were coated with gelatin for 20 min, then fixed with 0.5% glutaraldehyde (#15960, Electron Microscopy Sciences) for 40 min. After washing, a layer of 0.5 mg/ml type I collagen (#354236 rat tail, Corning) was coated onto these gelatin coverslips and incubated 4 h at 37° C. before cell seeding. Cells were incubated overnight before fixation and staining. At least 20 images were acquired for each condition, experiments were done in 3 biological replicates. The area of degradation was quantified using ImageJ and normalized to the number of nuclei in each image. To study the involvement of GSH in collagen disulfide bond reduction, cells were seeded on red gelatin and collagen I coated coverslips to proceed to ECM degradation assay. Cells were incubated 2 h to adhere and where then incubated with 1 mM L-gluthatione reduced (GSH #4251, Sigma Aldrich) overnight before fixation. For the opposite experiment, cells were seeded into red gelatin and collagen I coated coverslips, incubated 2 h to adhere and treated with 10 mg GPx1 (SRP-8010, Sigma Aldrich) and H2O2 every 30 min for 6 hours before fixation. ECM degradation quantification was performed as described above. siRNA oligonucleotides were purchased from Dharmacon. Endogenous Cnx was depleted by 2 rounds of siRNA transfection. Briefly, cells were first treated by reverse transfection with 25 nM of control siRNA ([NT]) or siRNA against [NT]) using Lipofectamine RNAiMAX (ThermoFisher Scientific). The day after, cells were treated again by forward transfection with nM siRNA diluted in Opti-MEM medium (Gibco) and incubated 5 more days before analyzing. Since GALA stimulates ECM degradation and Cnx is present in the responsible subcellular structures, we next asked whether surface Cnx is involved in this activity. […] We quantified ECM degradative activity by measuring the loss of fluorescent gelatin using automated image analysis (FIG. 8C). […]

NIH3T3vSrc cells [2] = test: Invadosome rosette formation after Cnx depletion; format: cell-based, mouse; conditions: siCnx vs siNT5
Protocol: siRNA oligonucleotides were purchased from Dharmacon. Endogenous Cnx was depleted by 2 rounds of siRNA transfection. Briefly, cells were first treated by reverse transfection with 25 nM of control siRNA (5′-UGGUUUACAUGUCGACUAA-3′) or siRNA against Cnx (5′-[…]-3′) using Lipofectamine RNAiMAX (ThermoFisher Scientific). The day after, cells were treated again by forward transfection with nM siRNA diluted in Opti-MEM medium (Gibco) and incubated 5 more days before analyzing.
(§2) To better understand this Cnx requirement, we tested whether Cnx depletion affected invadosomes formation, which we measured in NIH3T3vSrc because of the abundance of invadosomes and ease of detection in these cells (FIG. 2E). Given the lack of effect, we hypothesized an effect on Matrix Metalloproteinases and measured MMP2, 9 and 14 abundance by western blot (FIG. 8F). We also measured MMPs activity in a cell lysate and MMP14 localization in invadosomes rosettes after Cnx depletion (FIG. 8G, FIG. 8H).

MMP2, 9 and 14 = test: MMP protein level by western blot after Cnx depletion; format: cell-based; conditions: NIH3T3vSrc after Cnx depletion
Protocol: Cells were washed twice with ice-cold PBS, scraped in ice-cold RIPA lysis buffer (50 mM Tris, 200 mM NaCl, 0.5% NP-40, Complete and PhoStop inhibitor [Roche Applied Science]) and lysed for 30 min at 4° C. Lysates were then clarified by centrifugation at 13000 g for 10 min at 4° C. Lysate concentrations were determined using Bradford reagent (Bio-Rad). Lysates were boiled at 95° C. for 5 min and separated by SDS-PAGE electrophoresis using 4-12% Bis-Tris NuPage gels (Invitrogen) at 180V for 70 min. Samples were then transferred on nitrocellulose membranes using iBlot transfer system (Invitrogen) and blocked using 3% BSA dissolved in TBST (50 mM Tris, 150 mM NaCl and 0.1% Tween-20) for 1 h at room temperature. Membranes were then incubated with primary antibodies (1/1000 diluted in 3% BSA-TBST) overnight at 4° C. […]
as §2

MMPs = test: FRET-based MMP activity assay on cell lysates; format: biochemical; conditions: MDA ER-G2 after Cnx depletion
Protocol: In order to quantify total MMP activity, we used a FRET-based MMP activity assay kit (ab112147), on cell lysates, according to the manufacturer's protocol. Fluorescence was read at 540 nm using a microplate reader (Tecan) every 5 min for 2 h.
as §2

MMP14 = MMP14 localization in invadosome rosettes (immunofluorescence); format: cell-based; conditions: NIH3T3vSrc after Cnx depletion
Protocol: Cells were seeded on coverslips, at 70 000 cells per well in a 24-well plate (ThermoFisher Scientific) and incubated overnight. Cells were fixed with 4% paraformaldehyde (PFA) in Phosphate Buffered Saline (PBS, Gibco) for 10 min, rinsed 3 times with PBS and then permeabilized with 0.2% Triton X-100 for 10 min. Cells were incubated with primary antibodies (1/100 diluted in 2% FBS-PBS) for 1 h 30 at room temperature, rinsed 3 times with PBS and incubated with secondary antibodies (1/200 diluted in 2% FBS-PBS) for 40 min before being rinsed and mounted on microscope slides.
as §2

NIH3T3vSrc cells [3] = test: Cell-mediated ECM disulfide bond reduction (NEM / OX133 staining); format: cell-based, mouse; conditions: NIH3T3vSrc on rat tail ECM, GM6001 and NEM, 16 hours; Cnx depleted vs control cells
Description: In the ER, the Cnx-ERp57 complex mediates the formation and isomerization of disulfide bonds in neo-synthesized proteins^40. To explain the surprising requirement of the same complex for matrix degradation, we hypothesized it could mediate the reduction of disulfide bonds in extracellular ECM fibers. To reveal disulfide bonds in ECM preparations, we used the reducing agent tris(2-carboxyethyl)phosphine (TCEP), followed by reaction with N-ethylmaleimide (NEM). […] To test whether disulfide bonds are present in liver ECM, we prepared decellularized mouse liver tissue. The decellularized matrix presented as a meshwork with a diamond-shaped pattern, the fibers staining for Collagen I, III, IV, and fibronectin (FIGS. 4B, FIG. 9A, FIG. 9B). […] We also tested the commercially-sourced liver porcine ECM and the rat tail connective tissue and obtained in both cases an abundant staining with OX133 after TECP/NEM treatment (FIG. 9C). This staining was entirely dependent on TCEP and NEM. In all cases, most of the OX133 signal colocalized with collagen fibers.
To test if cells are able to reduce these disulfide bonds, the actively degrading NIH3T3vSrc cells were sparsely seeded on rat tail ECM. The cells were treated with the MMP inhibitor GM6001 to prevent collagen degradation. NEM was then added to reveal reduced cysteines and after 16 hours, coverslips were fixed and labeled. […]

MDA ER-G2 cells = test: ECM degradation assay, MDA ER-G2 on rat tail ECM; format: cell-based, human; conditions: for ECM degradation: MDA ER-G2, 1 mM GSH supplemented, or GPx and H2O2, vs untreated cells; for ECM degradation after ECM pre-treatment: ECM pre-treated before cell seeding
Protocol: as §1, with “image. To chemically reduce collagen disulfide bonds before cell seeding and ECM degradation assay, a 0.5 mg/ml type I collagen matrix was coated onto red gelatin coverslips and incubated 4 h at 37° C. for polymerization. Collagen was incubated with 2.5 mM TCEP (#64, 654-7, Sigma Aldrich) for 30 min at room temperature, rinsed 3 times with 1% BSA in PBS, and incubated with 5 mM N-ethylmaleimide (NEM #23030, ThermoFisher Scientific) for 30 min at room temperature. Coverslips were gently rinsed 3 more times with 1% BSA in PBS before cell seeding and ECM degradation assay.” for “image.”, “activity. To measure ECM degradation, we used a sandwich of fluorescently labeled gelatin overlaid with native ECM of different sources.” for “activity.”

5′-CAAGAGUGGUCCUAGGAGAUU-3′ [siCnx]
matrix degradation (NIH3T3vSrc cells [1]; siRNA depletion vs control siRNA (siNT5), listed as siRNA targeting Cnx): similarly reduced ECM degradation | rosette formation (number of rosettes per cell and percentage of cells making rosettes) (NIH3T3vSrc cells [2]): non significant | MMP2, 9 and 14 abundance by western blot (MMP2, 9 and 14): could not detect any difference | MMPs activity in a cell lysate (MMPs): could not detect any difference | MMP14 localization in invadosomes rosettes (MMP14): could not detect any difference | OX133 staining of ECM (reduced disulfide bonds) (NIH3T3vSrc cells [3]): significantly reduced

N[C@@H](CCC(=O)N[C@@H](CS)C(=O)NCC(=O)O)C(=O)O [GSH, L-gluthatione reduced]
ECM degradation (MDA ER-G2 cells): more efficient at ECM degradation | ECM degradation (NIH3T3vSrc cells [1]): more efficient at ECM degradation

Cl.O=C(O)CCP(CCC(=O)O)CCC(=O)O [TCEP, Tris(2-carboxyethyl)phosphine hydrochloride]
ECM degradation after ECM pre-treatment (MDA ER-G2 cells; MDA ER-G2 control cells): stimulatory effect on ECM degradation | ECM degradation after ECM pre-treatment (MDA ER-G2 cells; MDA ER-G2 depleted of Cnx or ERp57): completely reversed the inhibitory effect of Cnx depletion

B1: GPx: GSH peroxidase GPx1 (SRP-8010, Sigma Aldrich), given to cells together with H2O2 (protein, UniProt P00435 1-205, looked up)
Glutathione peroxidase 1: MCAAQRSAAALAAAAPRTVYAFSARPLAGGEPFNLSSLRGKVLLIENVASLUGTTVRDYTQMNDLQRRLGPRGLVVLGFPCNQFGHQENAKNEEILNCLKYVRPGGGFEPNFMLFEKCEVNGEKAHPLFAFLREVLPTPSDDATALMTDPKFITWSPVCRNDVSWNFEKFLVGPDGVPVRRYSRRFLTIDIEPDIETLLSQGASA
ECM degradation (MDA ER-G2 cells): less efficient ECM degradation | ECM degradation (NIH3T3vSrc cells [1]): less efficient ECM degradation
